Results: patent publication US20070154962A1, “Bcl-2 promoted cell death” (priority 2005, published 2007)

Assays:
Assay type in all cases: cell-based
PC12 cells [1] = test: Flow cytometry of sub-G1 nuclei from PC12 cells transiently transfected with Bcl-2-GFP and exposed to H2O2; conditions: treated cells compared with untreated controls; FIG. 5
Source text: FIG. 5: Flow cytometry measuring apoptotic cells from PC12 cells transiently transfected with Bcl-2-GFP with and without H2O2 treatment.
An alternative explanation would be that Bcl-2 relocates to the nucleus in response to apoptosis. […] However, there was no increase in the percent of sub-G1 nuclei carrying Bcl-2-GFP in cells treated with H2O2 as compared to untreated cells. In fact, there was a paradoxical decrease, which is expected if one appreciates that the number of sub-G1 nuclei increased after H2O2 treatment without a concomitant increase of nuclear Bcl-2-GFP. Therefore, nuclear association of Bcl-2 was […] apoptosis.

[2] = test system: PC12 cells stably expressing vector or Bcl-2; test: Cell survival (renilla luciferase) of stably transfected PC12 cells transiently transfected with BH4 peptide vector; conditions: FIG. 19
Method: FIG. 19: Cell survival was measured in PC12 cells stably expressing vector or Bcl-2. These two cell lines were transiently co-transfected with luciferase and either vector, BH4 domain, or BH4Gly.
(§1) The overall rationale of the experiment was to determine if domain interference disrupted Bcl-2/FKBP38 binding, changed Bcl-2's cellular localization (i.e., result in Bcl-2 misplacement at the nucleus) and ultimately promoted Bcl-2-triggered apoptosis. […] The rationale for using a peptide larger that the BH4 domain itself was to provide structure stability to the alpha-helix of the BH4 domain (AA 11-25) through sufficient flanking regions. Cells were further co-transfected with renilla luciferase so as to determine the extent of their survival. […] It is important to note that PC12 cells expressing Bcl-2 cells diddo not depend on Bcl-2 for their survival and therefore the effect of the BH4 peptide was not due to abolishment of Bcl-2 protection. Rather, it reflected an active induction of apoptosis by Bcl-2, triggered by the BH4 peptide. The possibility that PC12 cells expressing Bcl-2 may have undergone selection during the establishment of stable transfection that could have rendered them non-specifically sensitive to the BH4 peptide was excluded.

PC12 cells [3] = test: Cell survival of naive PC12 cells transiently co-transfected with Bcl-2 or vector and BH4 or BH4Gly; conditions: transient (24 hr) transfection of the BH4 vector alone, without Bcl-2, FIG. 20
Method: FIG. 20: Cell survival was measured in PC12 cells transiently co-transfected with Bcl-2 or vector, and either vector, BH4 or BH4Gly.
as §1

[4] = test system: Human leukemia cells (HL-60); test: Cell death as LDH release in HL-60 cells transiently transfected with BH4 peptide-expressing vector; conditions: HL-60, 48 after transfection, vs. Flag or BH4Gly; FIG. 24
Method: The extent of cell death was assessed 48 after transfection as release of LDH in the cell culture medium.
The extent of cell death was assessed 48 after transfection as release of LDH in the cell culture medium. Statistical difference was vs. Flag or BH4Gly (Two-tailed Student “t” test; N=4-7 independent measurements per group).

Molecule	sub-G1 (apoptotic) nuclei (PC12 cells [1])	induction of apoptosis / survival ([2]; PC12 cells not expressing Bcl-2 (empty vector pmKitNeo))	survival of cells (renilla luciferase) ([2]; PC12 cells stably expressing Bcl-2, compared with BH4-transfected cells stably expressing empty pmKitNeo)	cell survival (PC12 cells [3])	cell death (release of LDH in the cell culture medium) [4]
OO [H2O2]	substantial increase	–	–	–	–
BH4 peptide: vector-expressed peptide identical to the N-terminal 30 amino acids of Bcl-2, including the 11-25 BH4 domain (MAHAGRTGYDNREIVMKYIHYKLSQRGYEW; UniProt P10415 1-30, looked up, fragment)	–	unaffected	significantly lower	did not affect cell survival	effective in inducing cell death
